Results from patent publication US9840475B2, “N-(substituted)-5-fluoro-4-imino-3-methyl-2-oxo-3,4-dihydropyrimidine-1(2H)-carboxamide derivatives” (Adama Makhteshim Ltd., priority 2012, dated 2017).
Like-named read-outs stand apart in the source and are kept apart here.

What was measured:
[1] = test system: Mycosphaerella graminicola; anamorph: Septoria tritici; Bayer code SEPTTR; assay: Evaluation of fungicidal activity: leaf blotch of wheat (SEPTTR), disease control on wheat plants; assay type: in vivo; conditions: Zymoseptoria tritici
Protocol: Evaluation of Fungicidal Activity: Leaf Blotch of Wheat (Mycosphaerella graminicola; anamorph: Septoria tritici; Bayer code […]) Wheat plants (variety Yuma) were grown from seed in a greenhouse in 50% mineral soil/50% soil-less Metro mix until the first leaf was fully emerged, with 7-10 seedlings per pot. These plants were inoculated with an aqueous spore suspension of Septoria tritici either prior to or after fungicide treatments. After inoculation the plants were kept in 100% relative humidity (one day in a dark dew chamber followed by two to three days in a lighted dew chamber) to permit spores to germinate and infect the leaf. The plants were then transferred to a greenhouse for disease to develop. The following table presents the activity of typical compounds of the present disclosure when evaluated in these experiments. The effectiveness of the test compounds in controlling disease was determined by assessing the severity of disease on treated plants, then converting the severity to percent control based on the level of disease on untreated, inoculated plants.

[2] = 24 h, 100 ppm, one-day protectant, wheat plants (variety Yuma), percent control vs untreated, inoculated plants, read-out: SEPTTR 100 PPM 1DP (One-Day Protectant activity, % disease control rating)
[3] = 72 h, 100 ppm, three-day curative, wheat plants (variety Yuma), percent control vs untreated, inoculated plants, read-out: SEPTTR 100 PPM 3DC (Three-Day Curative activity, % disease control rating)
[4] = 24 h, read-out: SEPTTR 100 PPM 1DP (One-Day Protectant activity, % disease control rating)
[5] = 72 h, read-out: SEPTTR 100 PPM 3DC (Three-Day Curative activity, % disease control rating)

Row | melting point [°C] | SMILES | pest or weed control at 100 ppm [1, 2] [%] | pest or weed control at 100 ppm [1, 3] [%] | pest or weed control at 100 ppm [1, 4] [%] | pest or weed control at 100 ppm [1, 5] [%]
1 | 192.3 to 194.4 | Cn1c(=N)c(F)cn(C(=O)Nc2ccccc2)c1=O |  |  |  | 
2 | 184.7 to 186.2 | Cc1ccc(NC(=O)n2cc(F)c(=N)n(C)c2=O)cc1 [Compound 1] | 51 to 75 | 0 to 25 |  | 
3 | 203 to 204.5 | Cn1c(=N)c(F)cn(C(=O)Nc2cc(F)cc(F)c2)c1=O [Compound 3, N-(3,5-difluorophenyl)-5-fluoro-4-imino-3-methyl-2-oxo-3,4-dihydropyrimidine-1(2H)-carboxamide] | 0 to 25 | 51 to 75 |  | 
4 |  | Cc1ccc(NC(=S)n2cc(F)c(=N)n(C)c2=O)cc1 [Compound 5] |  |  | 76 to 100 | 76 to 100
5 |  | Cn1c(=N)c(F)cn(C(=S)Nc2ccc(Cl)cc2)c1=O [Compound 6, N-(4-chlorophenyl)-5-fluoro-4-imino-3-methyl-2-oxo-3,4-dihydropyrimidine-1(2H)-carbothioamide] | 76 to 100 | 76 to 100 |  | 
6 | 194.2 to 195.2 | Cn1c(=N)c(F)cn(C(=O)Nc2ccsc2)c1=O [Compound 7] | 51 to 75 | 76 to 100 |  | 
7 | 200.3 to 201.8 | Cn1c(=N)c(F)cn(C(=O)Nc2cccs2)c1=O [Compound 8] | 51 to 75 | 76 to 100 |  | 
8 | 168.9 to 170 | COc1ccccc1NC(=O)n1cc(F)c(=N)n(C)c1=O [Compound 9] | 26 to 50 | 76 to 100 |  | 
9 | 188.5 to 192.4 | Cc1cccc(NC(=O)n2cc(F)c(=N)n(C)c2=O)c1 [Compound 10] | 0 to 25 | 51 to 75 |  | 
10 | 192.4 to 195.7 | Cn1c(=N)c(F)cn(C(=O)Nc2ccc(C(F)(F)F)cc2)c1=O [Compound 11] | 0 to 25 | 0 to 25 |  | 
11 | 197.5 to 199.4 | Cn1c(=N)c(F)cn(C(=O)Nc2cccc(F)c2)c1=O [Compound 12] | 51 to 75 | 0 to 25 |  | 
12 | 194 to 196 | Cn1c(=N)c(F)cn(C(=O)Nc2ccc(F)cc2)c1=O [Compound 13] | 0 to 25 | 26 to 50 |  | 
13 | 204.1 to 205.5 | Cn1c(=N)c(F)cn(C(=O)Nc2cccc(C#N)c2)c1=O [Compound 15] | 0 to 25 | 26 to 50 |  | 
14 | 192.9 to 193.5 | Cc1ccc(NC(=O)n2cc(F)c(=N)n(C)c2=O)cc1Cl [Compound 16] | 76 to 100 | 26 to 50 |  | 
15 | 168.3 to 169.6 | COc1ccc(OC)c(NC(=O)n2cc(F)c(=N)n(C)c2=O)c1 [Compound 17] | 76 to 100 | 76 to 100 |  | 
16 | 203.6 to 205.5 | Cn1c(=N)c(F)cn(C(=O)Nc2ccc(F)cc2Cl)c1=O [Compound 18] | 51 to 75 | 0 to 25 |  | 
17 | 194.3 to 196.3 | COc1ccc(NC(=O)n2cc(F)c(=N)n(C)c2=O)cc1F [Compound 19] | 76 to 100 | 26 to 50 |  | 
18 | 210 to 213 | Cc1cc(NC(=O)n2cc(F)c(=N)n(C)c2=O)c(C)cc1Cl [Compound 20] | 51 to 75 | 26 to 50 |  | 
19 | 195.5 to 196.3 | COc1cccc(NC(=O)n2cc(F)c(=N)n(C)c2=O)c1 [Compound 21] | 0 to 25 | 0 to 25 |  | 
20 |  | Cn1c(=N)c(F)cn(C(=S)Nc2cc(Cl)cc(Cl)c2)c1=O [Compound 22] | 51 to 75 | 26 to 50 |  | 

Row | SMILES | melting point [°C] | pest or weed control at 100 ppm [1, 2] [%] | pest or weed control at 100 ppm [1, 3] [%] | pest or weed control at 100 ppm [1, 4] [%] | pest or weed control at 100 ppm [1, 5] [%]
21 | Cn1c(=N)c(F)cn(C(=O)Nc2ccc(Cl)cc2)c1=O [Compound 2] | 199 to 200.8 |  |  | 26 to 50 | 0 to 25
22 | COc1ccc(NC(=O)n2cc(F)c(=N)n(C)c2=O)cc1 [Compound 4] | 194.8 to 195.4 |  |  | 51 to 75 | 26 to 50
23 | Cn1c(=N)c(F)cn(C(=O)Nc2cc(Cl)cc(Cl)c2)c1=O [Compound 14] | 210 to 213.1 |  |  | 0 to 25 | 0 to 25
